From ChEMBL document CHEMBL6074641, “Polypharmacological Drug Design Guided by Integrating Phenotypic and Restricted Fragment Docking Strategies” (J Med Chem, 2024)
The source made the active and inactive calls. No cut-off for these calls is given here.

Legend:
[1] = target: ALK tyrosine kinase receptor (Homo sapiens, UniProt Q9UM73); experiment: Inhibition of recombinant ALK (1060 to end residues) (unknown origin) expressed in Escherichia coli […] using IGF1Rtide as substrate preincubated for 15 mins followed by substrate and ATP addition and measured after 90 mins by ADP-Glo luminescence […] assay
[2] = target: T1, Receptor-interacting serine/threonine-protein kinase 1 (Homo sapiens) (UniProt Q13546); experiment: Inhibition of RIPK1 (unknown origin) at 1 uM
T1 sequence (whole entry): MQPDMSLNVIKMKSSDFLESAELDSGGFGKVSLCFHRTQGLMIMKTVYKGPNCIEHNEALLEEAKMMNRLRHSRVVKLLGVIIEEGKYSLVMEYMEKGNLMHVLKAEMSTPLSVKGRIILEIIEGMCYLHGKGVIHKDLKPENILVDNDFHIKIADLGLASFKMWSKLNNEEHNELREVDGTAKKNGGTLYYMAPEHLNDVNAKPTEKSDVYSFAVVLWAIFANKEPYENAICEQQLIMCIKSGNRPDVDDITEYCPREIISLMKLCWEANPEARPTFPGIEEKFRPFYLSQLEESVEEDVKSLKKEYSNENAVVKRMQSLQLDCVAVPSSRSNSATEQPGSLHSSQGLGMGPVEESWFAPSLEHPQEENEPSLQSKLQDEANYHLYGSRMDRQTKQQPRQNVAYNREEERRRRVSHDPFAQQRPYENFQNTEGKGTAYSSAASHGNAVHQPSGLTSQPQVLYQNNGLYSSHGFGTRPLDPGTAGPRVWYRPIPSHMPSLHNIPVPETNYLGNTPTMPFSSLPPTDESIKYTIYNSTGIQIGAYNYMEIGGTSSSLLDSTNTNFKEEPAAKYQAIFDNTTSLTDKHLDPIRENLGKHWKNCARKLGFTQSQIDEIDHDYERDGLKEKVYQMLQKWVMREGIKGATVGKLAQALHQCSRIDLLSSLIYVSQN

BV-2 = experiment: Anti-inflammatory activity against LPS/zVAD treated mouse BV-2 cells assessed as decrease in IL-1beta release at 100 nM by ELISA; assay type: functional, cell-based
Microglia [3] = experiment: Anti-necroptosis activity in LPS/zVAD stimulated mouse primary microglia transfected with flag-tagged RIPK1 plasmid assessed as protection of microglia cells at 100 nM; assay type: functional, cell-based
[4] = Anti-necroptosis activity in LPS/zVAD stimulated mouse primary microglia assessed as protection of microglia cells at 100 nM; assay type: functional
Microglia [5] = experiment: Anti-necroptosis activity in LPS/zVAD stimulated mouse primary microglia transfected with HA-tagged MAP4K4 plasmid assessed as protection of microglia cells at 100 nM; assay type: functional, cell-based
Microglia [6] = experiment: Anti-necroptosis activity in LPS/zVAD stimulated mouse primary microglia assessed as reversal of mitochondrial swelling by TEM analysis; assay type: functional, cell-based
Microglia [7] = experiment: Anti-necroptosis activity in LPS/zVAD stimulated mouse primary microglia overexpressed with RIPK1 assessed as reversal of mitochondrial swelling by TEM analysis; assay type: functional, cell-based
Microglia [8] = experiment: Anti-necroptosis activity in LPS/zVAD stimulated mouse primary microglia overexpressed with RIPK1 assessed as reversal of severe membrane disruption by TEM analysis; assay type: functional, cell-based
Microglia [9] = experiment: Anti-necroptosis activity in LPS/zVAD stimulated mouse primary microglia overexpressed with MAP4K4 assessed as reversal of severe membrane disruption by TEM analysis; assay type: functional, cell-based
Microglia [10] = experiment: Anti-necroptosis activity in LPS/zVAD stimulated mouse primary microglia overexpressed with ALK assessed as reversal of mitochondrial swelling by TEM analysis; assay type: functional, cell-based
Cytochrome P450 1A2 = Cytochrome P450 1A2 (Homo sapiens, UniProt P05177); experiment: Inhibition of CYP1A2 (unknown origin) using phenacetin as substrate incubated for 10 mins in presence of NADPH by LC-MS/MS analysis; assay type: ADME
Cytochrome P450 2C19 = Cytochrome P450 2C19 (Homo sapiens, UniProt P33261); experiment: Inhibition of CYP2C19 (unknown origin) using S-mephenytoin as substrate incubated for 10 mins in presence of NADPH by LC-MS/MS analysis; assay type: ADME
Cytochrome P450 2D6 = Cytochrome P450 2D6 (Homo sapiens, UniProt P10635); experiment: Inhibition of CYP2D6 (unknown origin) using dextromethorphan as substrate incubated for 10 mins in presence of NADPH by LC-MS/MS analysis; assay type: ADME
Cytochrome P450 3A4 = Cytochrome P450 3A4 (Homo sapiens, UniProt P08684); experiment: Inhibition of CYP3A4 (unknown origin) using midazolam as substrate incubated for 10 mins in presence of NADPH by LC-MS/MS analysis; assay type: ADME
[11] = Cmax in C57BL/6 mouse plasma at 10 mg/kg, po measured upto 24 hrs by LC-MS/MS analysis; assay type: ADME, organism-based
[12] = Tmax in C57BL/6 mouse brain at 10 mg/kg, po measured upto 24 hrs by LC-MS/MS analysis; assay type: ADME, organism-based
[13] = AUC(0 to t) in C57BL/6 mouse plasma at 10 mg/kg, po measured upto 24 hrs by LC-MS/MS analysis; assay type: ADME, organism-based
[14] = AUC(0 to t) in C57BL/6 mouse brain at 10 mg/kg, po measured upto 24 hrs by LC-MS/MS analysis; assay type: ADME, organism-based
Mus musculus [15] = experiment: Anti-alzheimer activity against 5 month old APP/PS1 transgenic mouse model assessed as […] at 10 mg/kg, po administered 4 times per week for 4 weeks measured after 2 days; assay type: functional, organism-based; details: time 30.0 day
Mus musculus [16] = experiment: Anti-alzheimer activity against 8 month old 3xTg mouse model assessed as improved learning ability at 2 to 10 mg/kg, po administered 4 times per week for 4 weeks; assay type: functional, organism-based; details: dose 2-10 mg/kg
Mus musculus [17] = experiment: Anti-alzheimer activity against 5 month old APP/PS1 transgenic mouse model assessed as decrease in restlessness at 2 to 10 mg/kg, po administered 4 times per week for 4 weeks; assay type: functional, organism-based; details: dose 2-10 mg/kg
Mus musculus [18] = experiment: Anti-alzheimer activity against 5 month old APP/PS1 transgenic mouse model assessed as increase in searching frequency towards annulus at 10 mg/kg, po administered 4 times per week for 4 weeks; assay type: functional, organism-based
Mus musculus [19] = experiment: Anti-alzheimer activity against 8 month old 3xTg mouse model assessed as improved spatial preference towards annulus at 10 mg/kg, po administered 4 times per week for 4 weeks; assay type: functional, organism-based
Mus musculus [20] = experiment: Downregulation of MAP4K4 phosphorylation in 3xTg mouse hippocampus at 2 to 10 mg/kg, po by immunohistochemistry analysis; assay type: functional, organism-based; details: dose 2-10 mg/kg
Mus musculus [21] = experiment: Anti-necroptosis activity in 3xTg mouse hippocampus assessed as reduction in Iba activation at 2 to 10 mg/kg, po; assay type: functional, organism-based; details: dose 2-10 mg/kg
Mus musculus [22] = experiment: Anti-alzheimer activity against 8 month old 3xTg mouse model assessed as reduction in p-Tau181 content at 2 to 10 mg/kg, po; assay type: functional, organism-based; details: dose 2-10 mg/kg
Mus musculus [23] = experiment: Anti-alzheimer activity against 8 month old 3xTg mouse model assessed as reduction in Tau aggregation at 2 to 10 mg/kg, po; assay type: functional, organism-based; details: dose 2-10 mg/kg
Mus musculus [24] = experiment: Anti-alzheimer activity against 8 month old 3xTg mouse model assessed as increase in beta-III tubulin expression at 10 mg/kg, po; assay type: functional, organism-based
Mus musculus [25] = experiment: Anti-alzheimer activity in 8 month old 3xTg mouse model assessed as reversal of transcriptomic changes in Plxnd1 at 10 mg/kg, po; assay type: functional, organism-based

Sequence of ALK tyrosine kinase receptor (Q9UM73 whole entry): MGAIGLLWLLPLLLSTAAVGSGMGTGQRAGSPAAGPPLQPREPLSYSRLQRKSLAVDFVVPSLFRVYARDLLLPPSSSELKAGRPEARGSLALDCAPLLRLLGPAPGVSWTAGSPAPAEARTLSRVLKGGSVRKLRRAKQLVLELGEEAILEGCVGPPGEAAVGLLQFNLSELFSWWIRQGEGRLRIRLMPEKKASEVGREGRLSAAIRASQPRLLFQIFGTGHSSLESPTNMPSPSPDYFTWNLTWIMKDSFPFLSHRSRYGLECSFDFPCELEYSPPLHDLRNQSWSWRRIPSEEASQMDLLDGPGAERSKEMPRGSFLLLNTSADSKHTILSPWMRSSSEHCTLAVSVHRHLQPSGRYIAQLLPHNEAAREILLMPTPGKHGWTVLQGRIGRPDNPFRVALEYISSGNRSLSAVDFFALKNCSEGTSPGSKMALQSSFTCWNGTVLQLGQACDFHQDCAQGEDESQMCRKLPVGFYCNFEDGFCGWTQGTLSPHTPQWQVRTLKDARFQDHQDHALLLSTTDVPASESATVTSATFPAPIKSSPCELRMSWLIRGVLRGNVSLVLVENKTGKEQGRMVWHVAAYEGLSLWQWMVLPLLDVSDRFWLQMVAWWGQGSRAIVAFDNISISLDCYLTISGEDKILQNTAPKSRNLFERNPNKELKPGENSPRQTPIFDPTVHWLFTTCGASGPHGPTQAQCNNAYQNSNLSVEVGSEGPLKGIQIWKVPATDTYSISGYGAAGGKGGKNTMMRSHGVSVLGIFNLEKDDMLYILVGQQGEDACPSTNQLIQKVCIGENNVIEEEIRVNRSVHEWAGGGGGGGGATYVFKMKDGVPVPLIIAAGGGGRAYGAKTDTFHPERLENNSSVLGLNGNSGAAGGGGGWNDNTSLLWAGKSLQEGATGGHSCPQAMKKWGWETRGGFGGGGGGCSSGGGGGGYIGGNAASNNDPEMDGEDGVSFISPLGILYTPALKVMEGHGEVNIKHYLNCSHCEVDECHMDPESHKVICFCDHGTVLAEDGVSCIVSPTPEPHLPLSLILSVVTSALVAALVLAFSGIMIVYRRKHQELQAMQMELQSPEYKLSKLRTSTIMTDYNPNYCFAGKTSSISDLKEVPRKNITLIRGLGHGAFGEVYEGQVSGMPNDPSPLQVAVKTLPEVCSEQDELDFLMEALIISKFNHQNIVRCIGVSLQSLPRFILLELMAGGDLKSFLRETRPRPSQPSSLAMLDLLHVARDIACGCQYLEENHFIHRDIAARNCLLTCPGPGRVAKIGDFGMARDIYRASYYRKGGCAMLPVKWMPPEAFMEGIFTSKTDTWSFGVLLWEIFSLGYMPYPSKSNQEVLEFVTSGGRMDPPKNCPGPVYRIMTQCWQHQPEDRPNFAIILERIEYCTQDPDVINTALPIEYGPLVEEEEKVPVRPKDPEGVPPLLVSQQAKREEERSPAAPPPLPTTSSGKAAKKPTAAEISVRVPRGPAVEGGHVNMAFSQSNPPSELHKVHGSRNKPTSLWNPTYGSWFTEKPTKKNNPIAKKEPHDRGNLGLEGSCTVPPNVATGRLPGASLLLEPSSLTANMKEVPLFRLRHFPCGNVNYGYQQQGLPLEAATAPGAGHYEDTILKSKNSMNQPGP
Sequence of Cytochrome P450 2D6 (P10635 whole entry): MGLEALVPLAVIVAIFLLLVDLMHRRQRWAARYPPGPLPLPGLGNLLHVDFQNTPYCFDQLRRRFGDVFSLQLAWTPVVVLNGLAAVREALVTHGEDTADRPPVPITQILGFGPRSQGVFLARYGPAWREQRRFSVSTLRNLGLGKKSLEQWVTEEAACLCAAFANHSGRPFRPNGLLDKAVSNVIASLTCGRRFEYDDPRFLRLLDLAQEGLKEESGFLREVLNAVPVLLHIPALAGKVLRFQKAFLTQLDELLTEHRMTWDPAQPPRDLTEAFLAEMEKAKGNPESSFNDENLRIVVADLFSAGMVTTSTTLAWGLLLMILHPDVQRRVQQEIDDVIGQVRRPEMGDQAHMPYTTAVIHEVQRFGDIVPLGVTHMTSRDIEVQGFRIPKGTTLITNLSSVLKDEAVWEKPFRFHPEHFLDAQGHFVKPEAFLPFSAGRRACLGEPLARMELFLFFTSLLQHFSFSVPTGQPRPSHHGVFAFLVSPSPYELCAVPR
Sequence of Cytochrome P450 3A4 (P08684 whole entry): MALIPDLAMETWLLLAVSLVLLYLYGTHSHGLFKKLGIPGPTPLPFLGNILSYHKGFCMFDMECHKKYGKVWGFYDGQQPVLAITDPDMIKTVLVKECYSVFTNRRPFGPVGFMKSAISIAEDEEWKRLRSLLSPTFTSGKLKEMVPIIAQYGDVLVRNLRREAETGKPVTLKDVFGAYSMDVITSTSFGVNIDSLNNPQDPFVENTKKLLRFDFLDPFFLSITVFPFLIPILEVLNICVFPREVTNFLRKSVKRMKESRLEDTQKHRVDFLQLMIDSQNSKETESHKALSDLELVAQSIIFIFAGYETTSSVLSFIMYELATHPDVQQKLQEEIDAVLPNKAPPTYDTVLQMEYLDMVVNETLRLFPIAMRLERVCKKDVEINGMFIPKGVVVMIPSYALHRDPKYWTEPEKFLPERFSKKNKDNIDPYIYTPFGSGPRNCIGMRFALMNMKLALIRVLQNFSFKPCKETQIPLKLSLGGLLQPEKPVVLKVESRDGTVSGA
Sequence of Cytochrome P450 2C19 (P33261 whole entry): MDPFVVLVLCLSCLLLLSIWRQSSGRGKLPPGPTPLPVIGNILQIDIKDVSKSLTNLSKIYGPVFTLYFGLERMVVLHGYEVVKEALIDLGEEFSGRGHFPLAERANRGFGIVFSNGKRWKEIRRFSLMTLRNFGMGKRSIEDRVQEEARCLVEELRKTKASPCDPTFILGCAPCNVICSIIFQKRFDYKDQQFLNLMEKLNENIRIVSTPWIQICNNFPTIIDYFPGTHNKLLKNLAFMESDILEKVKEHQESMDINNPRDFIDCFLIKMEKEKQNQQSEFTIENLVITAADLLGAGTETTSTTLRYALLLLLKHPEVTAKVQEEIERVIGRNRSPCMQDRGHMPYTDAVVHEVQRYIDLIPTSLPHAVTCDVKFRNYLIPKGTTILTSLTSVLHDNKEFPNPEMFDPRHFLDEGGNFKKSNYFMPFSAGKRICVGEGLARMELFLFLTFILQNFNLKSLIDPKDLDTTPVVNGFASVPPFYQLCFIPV
Sequence of Cytochrome P450 1A2 (P05177 whole entry): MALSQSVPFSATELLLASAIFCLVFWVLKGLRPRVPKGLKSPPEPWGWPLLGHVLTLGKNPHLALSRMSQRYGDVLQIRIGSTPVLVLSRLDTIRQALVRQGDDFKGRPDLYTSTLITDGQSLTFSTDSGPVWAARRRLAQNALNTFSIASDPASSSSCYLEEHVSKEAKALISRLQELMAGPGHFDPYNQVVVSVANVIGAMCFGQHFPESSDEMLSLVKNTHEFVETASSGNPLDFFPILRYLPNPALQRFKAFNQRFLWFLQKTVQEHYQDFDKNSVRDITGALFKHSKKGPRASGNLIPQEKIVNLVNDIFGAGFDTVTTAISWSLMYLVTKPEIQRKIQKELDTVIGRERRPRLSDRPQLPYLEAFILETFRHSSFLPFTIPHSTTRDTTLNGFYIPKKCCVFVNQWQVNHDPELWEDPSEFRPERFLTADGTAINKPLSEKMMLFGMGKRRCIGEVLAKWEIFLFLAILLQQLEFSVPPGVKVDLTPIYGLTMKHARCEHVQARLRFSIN

- inhibition [2]: Active
- IC50 (Cytochrome P450 1A2): > 10 µM
- IC50 (Cytochrome P450 2C19): 8.3 µM
- IC50 (Cytochrome P450 2D6): > 10 µM
- IC50 (Cytochrome P450 3A4): > 10 µM
- Cmax [11]: 1.18 µg/mL
- Tmax [12]: 5.97 h
- AUC(0-t) at 24 h [13]: 10.9 µg·h/mL
- AUC(0-t) at 24 h [14]: 2.97 µg·h/mL
Structure (SMILES): Cc1cc(F)cc(Nc2ncc(Nc3ccc(SC(F)(F)F)cc3)cc2C(N)=O)c1
- IC50 [1]: 0.62 µM
- Activity (BV-2): Active
- Activity (Microglia [3]): inactive
- Activity [4]: 100%
- Activity (Microglia [5]): inactive
- Activity (Microglia [6]): Active
- Activity (Microglia [7]): inactive
- Activity (Microglia [8]): inactive
- Activity (Microglia [9]): inactive
- Activity (Microglia [10]): inactive
- Activity (Mus musculus [15]): Active
- Activity (Mus musculus [16]): Active
- Activity (Mus musculus [17]): Active
- Activity (Mus musculus [18]): Active
- Activity (Mus musculus [19]): Active
- Activity (Mus musculus [20]): Active; Activity More Potent Than Nec-1
- Activity (Mus musculus [21]): Active
- Activity (Mus musculus [22]): Active
- Activity (Mus musculus [23]): Active
- Activity (Mus musculus [24]): Active
- Activity (Mus musculus [25]): Active
